According to the NIST ThermoML archive (doi:10.1016/j.jct.2013.01.005):
Numbers after ± are expanded uncertainties.

Experiment: activity coefficient (dimensionless); of the first substance listed, at infinite dilution; xn = mol fraction of the nth substance listed
Conditions: 101 kPa, Liquid, Chromatography, x1 = 0

Row | SMILES | activity coefficient (308.15 K) | activity coefficient (318.15 K) | activity coefficient (328.15 K) | activity coefficient (338.15 K) | activity coefficient (348.15 K) | activity coefficient (358.15 K)
1 | CCCCCCCCC [nonane] + CCCCC[N+]1(C)CCCCC1.O=S(=O)([N-]S(=O)(=O)C(F)(F)F)C(F)(F)F | 24.2 ± 1.7 | 22.4 ± 1.5 | 21.1 ± 1.4 | 19.9 ± 1.4 | 19 ± 1.3 | 18 ± 1.2
2 | Cc1ccccc1 [toluene] + CCCCC[N+]1(C)CCCCC1.O=S(=O)([N-]S(=O)(=O)C(F)(F)F)C(F)(F)F | 0.91 ± 0.058 | 0.919 ± 0.058 | 0.955 ± 0.06 | 0.975 ± 0.061 | 1.01 ± 0.06 | 1.05 ± 0.07
3 | C#CCCCCC [1-heptyne] + CCCCC[N+]1(C)CCCCC1.O=S(=O)([N-]S(=O)(=O)C(F)(F)F)C(F)(F)F | 2.78 ± 0.19 | 2.81 ± 0.19 | 2.84 ± 0.19 | 2.87 ± 0.2 | 2.91 ± 0.2 | 2.94 ± 0.2
4 | Cc1ccc(C)cc1 [1,4-dimethylbenzene] + CCCCC[N+]1(C)CCCCC1.O=S(=O)([N-]S(=O)(=O)C(F)(F)F)C(F)(F)F | 1.16 ± 0.07 | 1.24 ± 0.08 | 1.28 ± 0.08 | 1.32 ± 0.09 | 1.37 ± 0.09 | 1.4 ± 0.09
5 | C1=CCCCC1 [cyclohexene] + CCCCC[N+]1(C)CCCCC1.O=S(=O)([N-]S(=O)(=O)C(F)(F)F)C(F)(F)F | 3.73 ± 0.25 | 3.63 ± 0.25 | 3.53 ± 0.24 | 3.39 ± 0.23 | 3.3 ± 0.22 | 3.21 ± 0.22
6 | Cc1cccc(C)c1 [1,3-dimethylbenzene] + CCCCCC[N+]1(C)CCCCC1.O=S(=O)([N-]S(=O)(=O)C(F)(F)F)C(F)(F)F | 1.14 ± 0.07 | 1.16 ± 0.07 | 1.19 ± 0.08 | 1.23 ± 0.08 | 1.27 ± 0.08 | 1.29 ± 0.08
7 | CC(C)CC(C)(C)C [2,2,4-trimethylpentane] + CCCCCC[N+]1(C)CCCCC1.O=S(=O)([N-]S(=O)(=O)C(F)(F)F)C(F)(F)F | 9.75 ± 0.67 | 9.59 ± 0.65 | 9.2 ± 0.63 | 8.95 ± 0.61 | 8.59 ± 0.59 | 8.43 ± 0.58
8 | CCCO [propan-1-ol] + CCCCC[N+]1(C)CCCCC1.O=S(=O)([N-]S(=O)(=O)C(F)(F)F)C(F)(F)F | 2.05 ± 0.14 | 1.82 ± 0.12 | 1.68 ± 0.11 | 1.55 ± 0.1 | 1.46 ± 0.1 | 1.36 ± 0.09
9 | CO [methanol] + CCCCCC[N+]1(C)CCCCC1.O=S(=O)([N-]S(=O)(=O)C(F)(F)F)C(F)(F)F | 1.51 ± 0.1 | 1.37 ± 0.09 | 1.26 ± 0.08 | 1.16 ± 0.07 | 1.08 ± 0.07 | 0.995 ± 0.062
10 | Cc1ccccc1C [1,2-dimethylbenzene] + CCCCC[N+]1(C)CCCCC1.O=S(=O)([N-]S(=O)(=O)C(F)(F)F)C(F)(F)F | 1.06 ± 0.07 | 1.14 ± 0.07 | 1.16 ± 0.07 | 1.19 ± 0.08 | 1.24 ± 0.08 | 1.27 ± 0.08
11 | CCCOCCC [dipropyl ether] + CCCCCC[N+]1(C)CCCCC1.O=S(=O)([N-]S(=O)(=O)C(F)(F)F)C(F)(F)F | 3.5 ± 0.24 | 3.47 ± 0.24 | 3.44 ± 0.23 | 3.41 ± 0.23 | 3.38 ± 0.23 | 3.37 ± 0.23
12 | COC(C)(C)C [2-methoxy-2-methylpropane] + CCCCCC[N+]1(C)CCCCC1.O=S(=O)([N-]S(=O)(=O)C(F)(F)F)C(F)(F)F | 1.59 ± 0.11 | 1.63 ± 0.11 | 1.66 ± 0.11 | 1.7 ± 0.11 | 1.72 ± 0.12 | 1.76 ± 0.12
13 | C1CCCCCC1 [cycloheptane] + CCCCCC[N+]1(C)CCCCC1.O=S(=O)([N-]S(=O)(=O)C(F)(F)F)C(F)(F)F | 6.23 ± 0.42 | 6.01 ± 0.41 | 5.77 ± 0.39 | 5.52 ± 0.38 | 5.32 ± 0.36 | 5.08 ± 0.35
14 | CCCCC [pentane] + CCCCCC[N+]1(C)CCCCC1.O=S(=O)([N-]S(=O)(=O)C(F)(F)F)C(F)(F)F | 5.95 ± 0.41 | 5.73 ± 0.39 | 5.42 ± 0.37 | 5.3 ± 0.36 | 5.2 ± 0.35 | 4.95 ± 0.34
15 | CCC(C)(C)C [2,2-dimethylbutane] + CCCCCC[N+]1(C)CCCCC1.O=S(=O)([N-]S(=O)(=O)C(F)(F)F)C(F)(F)F | 6.67 ± 0.45 | 6.44 ± 0.44 | 6.12 ± 0.42 | 6 ± 0.41 | 5.84 ± 0.4 | 5.65 ± 0.39
16 | c1ccsc1 [thiophene] + CCCCC[N+]1(C)CCCCC1.O=S(=O)([N-]S(=O)(=O)C(F)(F)F)C(F)(F)F | 0.646 ± 0.044 | 0.665 ± 0.045 | 0.673 ± 0.046 | 0.69 ± 0.046 | 0.708 ± 0.047 | 0.722 ± 0.048
